In ChEMBL document CHEMBL3751755, “Developing steroidal aromatase inhibitors-an effective armament to win the battle against breast cancer” (Eur J Med Chem, 2015):

Target: T1, Aromatase (Homo sapiens, UniProt P11511)
T1 sequence (P11511 whole entry): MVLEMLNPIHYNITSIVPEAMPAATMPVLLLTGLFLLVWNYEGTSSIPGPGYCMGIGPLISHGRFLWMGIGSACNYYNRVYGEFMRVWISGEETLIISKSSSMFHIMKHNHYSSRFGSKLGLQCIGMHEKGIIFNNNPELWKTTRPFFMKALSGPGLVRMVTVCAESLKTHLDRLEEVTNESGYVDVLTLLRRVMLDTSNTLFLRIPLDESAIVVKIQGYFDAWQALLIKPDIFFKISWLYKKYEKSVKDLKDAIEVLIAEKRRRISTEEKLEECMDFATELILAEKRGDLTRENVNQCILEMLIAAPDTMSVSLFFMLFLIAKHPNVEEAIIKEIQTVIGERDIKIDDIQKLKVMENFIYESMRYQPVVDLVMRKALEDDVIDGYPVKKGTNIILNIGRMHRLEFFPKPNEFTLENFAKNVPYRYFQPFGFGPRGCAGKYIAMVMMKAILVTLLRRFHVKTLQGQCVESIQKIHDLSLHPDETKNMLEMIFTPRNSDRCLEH

Compound | Ki
C[C@]12CCCC(OC(=O)c3ccccc3)=C1CC[C@@H]1[C@@H]2CC[C@]2(C)C(=O)CC[C@@H]12 | 0.07 µM
CC(=O)OC1=C2CC[C@@H]3[C@H](CC[C@]4(C)C(=O)CC[C@@H]34)[C@@]2(C)CCC1 | 0.06 µM
C[C@]12C=CC(=O)C=C1C=C[C@@H]1[C@@H]2CC[C@]2(C)C(=O)CC[C@@H]12 | 0.0025 µM
C[C@]12CC[C@@H]3c4cc(NC(=O)c5ccncc5)c(O)cc4CC[C@H]3[C@@H]1CCC2=O | 2.1 µM
C[C@]12CC[C@@H]3c4ccc(O)c(NC(=O)c5ccncc5)c4CC[C@H]3[C@@H]1CCC2=O | 1.53 µM
C[C@H]1C[C@@H]2[C@H](CC[C@]3(C)C(=O)CC[C@@H]23)[C@@]2(C)CCCC=C12 | 0.0031 µM
CCCCCCCC[C@H]1C[C@@H]2[C@H](CC[C@]3(C)C(=O)CC[C@@H]23)[C@@]2(C)CCC(=O)C=C12 | 0.0093 µM
CCCCC1=C[C@@H]2[C@H](CC[C@]3(C)C(=O)CC[C@@H]23)[C@@]2(C)C=CC(=O)C=C12 | 0.0025 µM
C[C@]12CCC(=O)C=C1[C@@H](OCc1ccccc1)C[C@@H]1[C@@H]2CC[C@]2(C)C(=O)CC[C@@H]12 | 0.007 µM
CO[C@@H]1C[C@@H]2[C@H](CC[C@]3(C)C(=O)CC[C@@H]23)[C@@]2(C)CCCC=C12 | 0.012 µM
C[C@]12C=CC(=O)C=C1C(c1ccc(O)cc1)=C[C@@H]1[C@@H]2CC[C@]2(C)C(=O)CC[C@@H]12 | 0.075 µM
C[C@]12C=CC(=O)C=C1C(CCc1ccccc1)=C[C@@H]1[C@@H]2CC[C@]2(C)C(=O)CC[C@@H]12 | 0.0085 µM
C[C@]12CCC(=O)C=C1[C@@H](CCc1ccccc1)C[C@@H]1[C@@H]2CC[C@]2(C)C(=O)CC[C@@H]12 | 0.016 µM
C[C@]12CC[C@H]3[C@@H](CC=C4C=CCC[C@@]43C)[C@@H]1CC[C@@H]2O | 0.058 µM
CCCCCCC1=C[C@@H]2[C@H](CC[C@]3(C)C(=O)CC[C@@H]23)[C@@]2(C)C=CC(=O)C=C12 | 0.0025 µM
CCCCCCCC1=C[C@@H]2[C@H](CC[C@]3(C)C(=O)CC[C@@H]23)[C@@]2(C)C=CC(=O)C=C12 | 0.0025 µM
C[C@]12CCC=CC1=CC[C@@H]1[C@@H]2CC[C@]2(C)C(=O)CC[C@@H]12 | 0.058 µM
CCCC1=C[C@@H]2[C@H](CC[C@]3(C)C(=O)CC[C@@H]23)[C@@]2(C)CCC(=O)C=C12 | 0.017 µM
C[C@]12CCC(=O)C=C1[C@H](CCCCc1ccccc1)C[C@@H]1[C@@H]2CC[C@]2(C)C(=O)CC[C@@H]12 | 0.016 µM
CCCCCCC1=C[C@@H]2[C@H](CC[C@]3(C)C(=O)CC[C@@H]23)[C@@]2(C)CCC(=O)C=C12 | 0.017 µM
CCCCC1=C[C@@H]2[C@H](CC[C@]3(C)C(=O)CC[C@@H]23)[C@@]2(C)CCC(=O)C=C12 | 0.017 µM
CCCCCC1=C[C@@H]2[C@H](CC[C@]3(C)C(=O)CC[C@@H]23)[C@@]2(C)C=CC(=O)C=C12 | 0.0025 µM
CCCCC[C@H]1C[C@@H]2[C@H](CC[C@]3(C)C(=O)CC[C@@H]23)[C@@]2(C)CCC(=O)C=C12 | 0.0093 µM
CCC1=C[C@@H]2[C@H](CC[C@]3(C)C(=O)CC[C@@H]23)[C@@]2(C)CCC(=O)C=C12 | 0.017 µM
CCCCC[C@@H]1C[C@@H]2[C@H](CC[C@]3(C)C(=O)CC[C@@H]23)[C@@]2(C)CCC(=O)C=C12 | 0.0028 µM
C[C@]12CCC(=O)C=C1[C@@H](c1ccc(O)cc1)C[C@@H]1[C@@H]2CC[C@]2(C)C(=O)CC[C@@H]12 | 0.027 µM
C[C@]12CCC(=O)C=C1C(CCc1ccccc1)=C[C@@H]1[C@@H]2CC[C@]2(C)C(=O)CC[C@@H]12 | 0.01 µM

Compound | Ki
C[C@]12CC[C@H]3[C@@H](C(=O)[C@H]4O[C@]45C(=O)CCC[C@]35C)[C@@H]1CCC2=O | 5 µM
C[C@]12CCC(=O)C=C1C(c1ccc(O)cc1)=C[C@@H]1[C@@H]2CC[C@]2(C)C(=O)CC[C@@H]12 | 0.023 µM
CCCCCC(=O)O[C@H]1C[C@@H]2[C@H](CC[C@]3(C)C(=O)CC[C@@H]23)[C@@]2(C)CCC(=O)C=C12 | 0.007 µM
CC[C@H]1C[C@@H]2[C@H](CC[C@]3(C)C(=O)CC[C@@H]23)[C@@]2(C)CCCC=C12 | 0.012 µM
C[C@]12CC[C@H]3[C@@H](CC(=O)[C@]45O[C@H]4C(=O)CC[C@]35C=O)[C@@H]1CCC2=O | 5 µM
COC1=C[C@@]2(C)C(=CC1=O)CC[C@@H]1[C@@H]2CC[C@]2(C)C(=O)CC[C@@H]12 | 0.095 µM
CO[C@H]1C[C@@H]2[C@H](CC[C@]3(C)C(=O)CC[C@@H]23)[C@@]2(C)CCCC=C12 | 0.012 µM
C[C@]12CC[C@H]3[C@@H](CC=C4CCCC[C@@]43C)[C@@H]1CC[C@@H]2O | 0.058 µM
C[C@]12CCC(=O)C=C1C(c1ccc(OS(N)(=O)=O)cc1)=C[C@@H]1[C@@H]2CC[C@]2(C)C(=O)CC[C@@H]12 | 0.03 µM
C[C@]12CC[C@H]3[C@@H](CC(=O)[C@]45O[C@H]4C(=O)CC[C@]35C)[C@@H]1CCC2=O | 5 µM
CCCC1=C[C@@H]2[C@H](CC[C@]3(C)C(=O)CC[C@@H]23)[C@@]2(C)C=CC(=O)C=C12 | 0.0025 µM
CCCCCC[C@H]1C[C@@H]2[C@H](CC[C@]3(C)C(=O)CC[C@@H]23)[C@@]2(C)CCC(=O)C=C12 | 0.0093 µM
C[C@]12CCC(=O)C=C1C(Cc1ccccc1)=C[C@@H]1[C@@H]2CC[C@]2(C)C(=O)CC[C@@H]12 | 0.009 µM
CC1(C)C[C@@]2(C)C(=CC1=O)[C@@H](Br)C[C@@H]1[C@@H]2CC[C@]2(C)C(=O)CC[C@@H]12 | 0.014 µM
CCCCCCCC1=C[C@@H]2[C@H](CC[C@]3(C)C(=O)CC[C@@H]23)[C@@]2(C)CCC(=O)C=C12 | 0.017 µM
CCCCCC[C@@H]1C[C@@H]2[C@H](CC[C@]3(C)C(=O)CC[C@@H]23)[C@@]2(C)CCC(=O)C=C12 | 0.0028 µM
CC1(C)C[C@@]2(C)C(=CC1=O)[C@H](Br)C[C@@H]1[C@@H]2CC[C@]2(C)C(=O)CC[C@@H]12 | 0.01 µM
CCCCCCC1=C[C@@]2(C)C(=C(O)C1=O)CC[C@@H]1[C@@H]2CC[C@]2(C)C(=O)CC[C@@H]12 | 0.031 µM
CCCCCCCC[C@@H]1C[C@@H]2[C@H](CC[C@]3(C)C(=O)CC[C@@H]23)[C@@]2(C)CCC(=O)C=C12 | 0.0028 µM
C[C@]12CCCC(=O)C1=CC[C@@H]1[C@@H]2CC[C@]2(C)C(=O)CC[C@@H]12 | 0.12 µM
CCC1=C[C@@H]2[C@H](CC[C@]3(C)C(=O)CC[C@@H]23)[C@@]2(C)C=CC(=O)C=C12 | 0.0025 µM
C[C@]12CCC(=O)C=C1[C@@H](c1ccc(OS(N)(=O)=O)cc1)C[C@@H]1[C@@H]2CC[C@]2(C)C(=O)CC[C@@H]12 | 0.039 µM
CCCCCC1=C[C@@H]2[C@H](CC[C@]3(C)C(=O)CC[C@@H]23)[C@@]2(C)CCC(=O)C=C12 | 0.017 µM
C[C@@H]1C[C@@H]2[C@H](CC[C@]3(C)C(=O)CC[C@@H]23)[C@@]2(C)CCCC=C12 | 0.0053 µM
CC(=O)O[C@@H]1C[C@@H]2[C@H](CC[C@]3(C)C(=O)CC[C@@H]23)[C@@]2(C)CCCC=C12 | 0.012 µM
CC(=O)O[C@H]1C[C@@H]2[C@H](CC[C@]3(C)C(=O)CC[C@@H]23)[C@@]2(C)CCCC=C12 | 0.012 µM
C[C@]12C=CC(=O)C=C1C(c1ccc(OS(N)(=O)=O)cc1)=C[C@@H]1[C@@H]2CC[C@]2(C)C(=O)CC[C@@H]12 | 0.056 µM
